According to PubChem BioAssay AID256 (DTP/NCI, 2004):
Where “and” joins values, the source holds several entries; their conditions need not be identical. Equal values may be shown once. Inconclusive results and toxic doses are left out.

System: CD2F1 mice, L1210 leukemia ip, survival T/C
Experiment: NCI In Vivo Anticancer Drug Screen. Data for tumor model L1210 Leukemia (intraperitoneal) in CD2F1 (CDF1) mice
Settings: higher = longer survival
How it was run: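 Tumor-bearing mice (transplanted tumor) were split into treated and vehicle control groups, and the measured endpoint of each treated group was divided by that of its vehicle controls.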

[1] = endpoint: mean survival time, dose: 100.0 mg/kg/injection, schedule: Q01DX009 (ip), vehicle: saline with Tween-80
[2] = endpoint: mean survival time, dose: 200.0 mg/kg/injection, schedule: Q01DX009 (ip), vehicle: saline with Tween-80
[3] = endpoint: mean survival time, dose: 400.0 mg/kg/injection, schedule: Q01DX009 (ip), vehicle: saline with Tween-80
[4] = endpoint: mean survival time, dose: 100.0 mg/kg/injection, schedule: Q04DX003 (ip), vehicle: saline with Tween-80
[5] = endpoint: mean survival time, dose: 200.0 mg/kg/injection, schedule: Q04DX003 (ip), vehicle: saline with Tween-80
[6] = endpoint: mean survival time, dose: 400.0 mg/kg/injection, schedule: Q04DX003 (ip), vehicle: saline with Tween-80
[7] = endpoint: mean survival time, dose: 100.0 mg/kg/injection, schedule: Q01DX001 (ip), vehicle: saline with Tween-80
[8] = endpoint: mean survival time, dose: 200.0 mg/kg/injection, schedule: Q01DX001 (ip), vehicle: saline with Tween-80
[9] = endpoint: mean survival time, dose: 400.0 mg/kg/injection, schedule: Q01DX001 (ip), vehicle: saline with Tween-80
[10] = endpoint: mean survival time, dose: 50.0 mg/kg/injection, schedule: Q01DX009 (ip), vehicle: other
[11] = endpoint: mean survival time, dose: 100.0 mg/kg/injection, schedule: Q01DX009 (ip), vehicle: other
[12] = endpoint: mean survival time, dose: 200.0 mg/kg/injection, schedule: Q01DX009 (ip), vehicle: other
[13] = endpoint: mean survival time, dose: 6.25 mg/kg/injection, schedule: Q01DX009 (ip), vehicle: saline sonified
[14] = endpoint: mean survival time, dose: 12.5 mg/kg/injection, schedule: Q01DX009 (ip), vehicle: saline sonified
[15] = endpoint: mean survival time, dose: 25.0 mg/kg/injection, schedule: Q01DX009 (ip), vehicle: saline sonified

## CN(C)C(=O)N(CCCl)N=O
endpoint: mean survival time, dose: 16.0 mg/kg/injection, schedule: Q01DX001 (ip), vehicle: other
  T/C: 176 % of control
endpoint: mean survival time, dose: 20.0 mg/kg/injection, schedule: Q01DX001 (ip), vehicle: other
  T/C: 306 % of control
endpoint: mean survival time, dose: 32.0 mg/kg/injection, schedule: Q01DX001 (ip), vehicle: other
  T/C: 570 % of control
endpoint: mean survival time, dose: 40.0 mg/kg/injection, schedule: Q01DX001 (ip), vehicle: other
  T/C: 318 % of control

## Cc1c(N)nc(I)c2ccccc12
[1]
  T/C: 98 % of control
[2]
  T/C: 93 % of control
[3]
  T/C: 87 % of control

## NC(=O)c1cn(C2OC(CO)C(O)C2O)c2ncn3ncnc3c12 (configuration not stated)
endpoint: mean survival time, dose: 3.13 mg/kg/injection, schedule: Q01DX005 (ip), vehicle: water
  T/C: 113 % of control
endpoint: mean survival time, dose: 6.25 mg/kg/injection, schedule: Q01DX005 (ip), vehicle: water
  T/C: 112 % of control
endpoint: mean survival time, dose: 12.5 mg/kg/injection, schedule: Q01DX005 (ip), vehicle: water
  T/C: 116 % of control
endpoint: mean survival time, dose: 50.0 mg/kg/injection, schedule: Q01DX005 (ip), vehicle: water
  T/C: 98 % of control

## CCCCNC(=O)Nc1ccccc1Cl
[1]
  T/C: 91 % of control
[4]
  T/C: 101 % of control
[2]
  T/C: 94 % of control
[5]
  T/C: 100 % of control
[3]
  T/C: 100 % of control
[6]
  T/C: 92 % of control

## CCOC(=O)C(=O)CC1=CC=CC2=NC(=O)CCN12
[7]
  T/C: 93 % of control
[8]
  T/C: 93 % of control
[9]
  T/C: 102 % of control

## CN(N)C1CCCCC1
endpoint: mean survival time, dose: 75.0 mg/kg/injection, schedule: Q01DX001 (ip), vehicle: saline
  T/C: 100 % of control
endpoint: mean survival time, dose: 150.0 mg/kg/injection, schedule: Q01DX001 (ip), vehicle: saline
  T/C: 100 % of control

## O=C1C(C(O)c2ccccc2)CCCC1C(O)c1ccccc1 (configuration not stated)
[4]
  T/C: 89 % of control
[5]
  T/C: 89 % of control
[6]
  T/C: 92 % of control

## COc1cc2c(cc1O)CCCCC2
[10]
  T/C: 100 % of control
[11]
  T/C: 103 % of control
[12]
  T/C: 92 % of control

## CC(C)(CO)COC(=O)NC1=C(N2CC2)C(=O)C(NC(=O)OCC(C)(C)CO)=C(N2CC2)C1=O
endpoint: mean survival time, dose: 0.75 mg/kg/injection, schedule: Q01DX009 (ip), vehicle: water
  T/C: 119 % of control and 121 % of control
endpoint: mean survival time, dose: 1.5 mg/kg/injection, schedule: Q01DX009 (ip), vehicle: water
  T/C: 122 % of control and 106 % of control
endpoint: mean survival time, dose: 12.0 mg/kg/injection, schedule: Q01DX009 (ip), vehicle: water
  T/C: 166 % of control and 169 % of control

## CN1CCCN(C)C1c1cc([N+](=O)[O-])ccc1O
[13]
  T/C: 100 % of control
endpoint: mean survival time, dose: 6.25 mg/kg/injection, schedule: Q04DX003 (ip), vehicle: saline sonified
  T/C: 106 % of control
[14]
  T/C: 98 % of control
endpoint: mean survival time, dose: 12.5 mg/kg/injection, schedule: Q04DX003 (ip), vehicle: saline sonified
  T/C: 101 % of control
[15]
  T/C: 89 % of control
endpoint: mean survival time, dose: 25.0 mg/kg/injection, schedule: Q04DX003 (ip), vehicle: saline sonified
  T/C: 98 % of control

## C[N+](C)(CCCCCCCCCC[N+](C)(C)CC(=O)c1ccccc1)CC(=O)c1ccccc1
endpoint: mean survival time, dose: 0.5 mg/kg/injection, schedule: Q04DX003 (ip), vehicle: saline
  T/C: 101 % of control
endpoint: mean survival time, dose: 1.0 mg/kg/injection, schedule: Q04DX003 (ip), vehicle: saline
  T/C: 94 % of control
endpoint: mean survival time, dose: 2.0 mg/kg/injection, schedule: Q04DX003 (ip), vehicle: saline
  T/C: 95 % of control

## O=C1OC(Cl)(c2cccc3ccccc23)c2ccccc21 (configuration not stated)
endpoint: mean survival time, dose: 100.0 mg/kg/injection, schedule: Q04DX003 (ip), vehicle: Klucel (hydroxypropylcellulose) (HPC)
  T/C: 87 % of control
endpoint: mean survival time, dose: 200.0 mg/kg/injection, schedule: Q04DX003 (ip), vehicle: Klucel (hydroxypropylcellulose) (HPC)
  T/C: 87 % of control
endpoint: mean survival time, dose: 400.0 mg/kg/injection, schedule: Q04DX003 (ip), vehicle: Klucel (hydroxypropylcellulose) (HPC)
  T/C: 94 % of control

## COc1ccc2[nH]c3ccc4cc[n+](CCN5CCC(C6CCN(CC[n+]7ccc8ccc9[nH]c%10ccc(OC)cc%10c9c8c7)CC6)CC5)cc4c3c2c1
endpoint: median survival time, dose: 8.0 mg/kg/injection, schedule: Q01DX009 (ip), vehicle: water
  T/C: 172 % of control and 246 % of control
endpoint: median survival time, dose: 16.0 mg/kg/injection, schedule: Q01DX009 (ip), vehicle: water
  T/C: 160 % of control and 185 % of control
endpoint: median survival time, dose: 16.25 mg/kg/injection, schedule: Q01DX009 (ip), vehicle: water
  T/C: 172 % of control
endpoint: median survival time, dose: 32.0 mg/kg/injection, schedule: Q01DX009 (ip), vehicle: water
  T/C: 119 % of control
endpoint: median survival time, dose: 32.5 mg/kg/injection, schedule: Q01DX009 (ip), vehicle: water
  T/C: 197 % of control
endpoint: median survival time, dose: 200.0 mg/kg/injection, schedule: Q01DX009 (ip), vehicle: Klucel (hydroxypropylcellulose) (HPC)
  T/C: 91 % of control and 102 % of control

## COC1=C(C)C(=O)C2=C(C1=O)C1C3CC4=C(C(=O)C(OC)=C(C)C4=O)C(CNC(=O)C(C)=O)N3C(C#N)C(C2)N1C (configuration not stated)
endpoint: median survival time, dose: 0.13 mg/kg/injection, schedule: Q01DX009 (ip), vehicle: Klucel (hydroxypropylcellulose) (HPC)
  T/C: 118 % of control
endpoint: median survival time, dose: 0.25 mg/kg/injection, schedule: Q01DX009 (ip), vehicle: Klucel (hydroxypropylcellulose) (HPC)
  T/C: 110 % of control
endpoint: median survival time, dose: 0.5 mg/kg/injection, schedule: Q01DX009 (ip), vehicle: Klucel (hydroxypropylcellulose) (HPC)
  T/C: 113 % of control and 108 % of control
endpoint: median survival time, dose: 1.0 mg/kg/injection, schedule: Q01DX009 (ip), vehicle: Klucel (hydroxypropylcellulose) (HPC)
  T/C: 116 % of control and 112 % of control
endpoint: median survival time, dose: 2.0 mg/kg/injection, schedule: Q01DX009 (ip), vehicle: Klucel (hydroxypropylcellulose) (HPC)
  T/C: 108 % of control
endpoint: median survival time, dose: 62.5 micrograms/kg/injection, schedule: Q01DX009 (ip), vehicle: Klucel (hydroxypropylcellulose) (HPC)
  T/C: 100 % of control
endpoint: median survival time, dose: 125.0 micrograms/kg/injection, schedule: Q01DX009 (ip), vehicle: Klucel (hydroxypropylcellulose) (HPC)
  T/C: 104 % of control
endpoint: median survival time, dose: 250.0 micrograms/kg/injection, schedule: Q01DX009 (ip), vehicle: Klucel (hydroxypropylcellulose) (HPC)
  T/C: 108 % of control
endpoint: median survival time, dose: 500.0 micrograms/kg/injection, schedule: Q01DX009 (ip), vehicle: Klucel (hydroxypropylcellulose) (HPC)
  T/C: 117 % of control
endpoint: median survival time, dose: 1000.0 micrograms/kg/injection, schedule: Q01DX009 (ip), vehicle: Klucel (hydroxypropylcellulose) (HPC)
  T/C: 122 % of control

## CCCC1CC[N-]CC1.CCCC1CC[N-]CC1.[Cl][Cu][Cl]
endpoint: mean survival time, dose: 3.13 mg/kg/injection, schedule: Q01DX009 (ip), vehicle: saline
  T/C: 96 % of control
endpoint: mean survival time, dose: 12.5 mg/kg/injection, schedule: Q01DX009 (ip), vehicle: saline
  T/C: 94 % of control

## C=CCC1(C)C(OC(C)=O)/C(=C\c2ccco2)CC2(C)c3cc(OC)ccc3CCC21 (configuration not stated)
endpoint: mean survival time, dose: 100.0 mg/kg/injection, schedule: Q01DX001 (ip), vehicle: saline
  T/C: 101 % of control
endpoint: mean survival time, dose: 200.0 mg/kg/injection, schedule: Q01DX001 (ip), vehicle: saline
  T/C: 96 % of control
endpoint: mean survival time, dose: 400.0 mg/kg/injection, schedule: Q01DX001 (ip), vehicle: saline
  T/C: 96 % of control

## CN(C)NC(=O)/C=C\C(=O)O
endpoint: mean survival time, dose: 100.0 mg/kg/injection, schedule: Q01DX009 (ip), vehicle: saline
  T/C: 101 % of control
endpoint: mean survival time, dose: 200.0 mg/kg/injection, schedule: Q01DX009 (ip), vehicle: saline
  T/C: 101 % of control

## O=C(O)Cc1ccccc1[N+](=O)[O-]
[7]
  T/C: 106 % of control
[8]
  T/C: 101 % of control
[9]
  T/C: 101 % of control

## [CH3][Sn]1([CH3])[O]C2C(CO)OC(n3ccc(N)nc3=O)C2[O]1 (configuration not stated)
endpoint: mean survival time, dose: 12.5 mg/kg/injection, schedule: Q01DX005 (ip), vehicle: other
  T/C: 103 % of control
endpoint: mean survival time, dose: 25.0 mg/kg/injection, schedule: Q01DX005 (ip), vehicle: other
  T/C: 92 % of control
endpoint: mean survival time, dose: 50.0 mg/kg/injection, schedule: Q01DX005 (ip), vehicle: other
  T/C: 106 % of control

## CC(C)(CI)CI
[4]
  T/C: 104 % of control
[5]
  T/C: 102 % of control
[6]
  T/C: 96 % of control

## Cc1cc[n+](C)c(-c2ccccc2)c1
[13]
  T/C: 100 % of control
[14]
  T/C: 101 % of control
[15]
  T/C: 109 % of control

## CC(=O)OC1C(CNC(=O)N(C)N=O)OC(OC2(CNC(=O)N(C)N=O)OC(CNC(=O)N(C)N=O)C(OC(C)=O)C2OC(C)=O)C(OC(C)=O)C1OC(C)=O (configuration not stated)
endpoint: mean survival time, dose: 12.5 mg/kg/injection, schedule: Q01DX009 (ip), vehicle: other
  T/C: 93 % of control
endpoint: mean survival time, dose: 25.0 mg/kg/injection, schedule: Q01DX009 (ip), vehicle: other
  T/C: 94 % of control
[10]
  T/C: 104 % of control
[11]
  T/C: 102 % of control
[12]
  T/C: 120 % of control

## CCN(CC)CC(O)CNc1ncnc(N)c1C(=C(C)C)c1ccc(Cl)cc1 (configuration not stated)
endpoint: mean survival time, dose: 25.0 mg/kg/injection, schedule: Q01DX009 (ip), vehicle: saline with Tween-80
  T/C: 101 % of control
endpoint: mean survival time, dose: 50.0 mg/kg/injection, schedule: Q01DX009 (ip), vehicle: saline with Tween-80
  T/C: 97 % of control
[1]
  T/C: 97 % of control
[4]
  T/C: 101 % of control
